Assay results published in patent publication US20190365699A1, “Treatment of Kidney Tumors by Intratumoral Injection of Taxane Particles” (CRITITECH, INC., priority 2018, published 2019).
Read-outs that look alike come from different tables or passages of the source.

Key:
[1] = Particle size analysis (light obscuration and laser diffraction); type: physicochemical
Excerpt: The particle size of the taxane particles can be determined by a particle size analyzer instrument and the measurement is expressed as the mean diameter based on a number distribution (number). A suitable particle size analyzer instrument is one which employs the analytical technique of light obscuration, also referred to as photozone or single particle optical sensing (SPOS). A suitable light obscuration particle size analyzer instrument is the ACCUSIZER, such as the ACCUSIZER 780 SIS, available from Particle Sizing Systems, Port Richey, Fla. Another suitable particle size analyzer instrument is one which employs laser diffraction, such as the Shimadzu SALD-7101.
Particle size was analyzed by both light obscuration and laser diffraction methods.
The vials were vortexed for approximately 10 seconds and then sonicated in a sonic bath approximately 1 minute.
The vial was vortexed for approximately 10 seconds and then sonicated in a sonic bath for approximately 2 minutes. This suspension was used for laser diffraction analysis. Unused suspension was poured into a 125 mL particle-free plastic bottle, which was then filled to approximately 100 mL with filtered dispersant. The suspension was vortex for approximately 10 seconds and then sonicated in the sonic bath for approximately 2 minutes. This diluted suspension was used for light obscuration analysis. […]

[2] = Docetaxel dissolution study, USP Apparatus II; type: physicochemical
Method: The procedures used to determine the dissolution rates are as follows. […] Beads were transferred to a stainless steel mesh container and placed in the dissolution bath containing methanol/water 50/50 (v/v) media at 37° C., pH 7, and a USP Apparatus II (Paddle), operating at 75 rpm. At 10, 20, 30, 60, and 90 minutes, a 5 mL aliquot was removed, filtered through a 0.22 μm filter and analyzed on a UV/VIS spectrophotometer at 227 nm. Absorbance values of the samples were compared to those of standard solutions prepared in dissolution media to determine the amount of material dissolved. […] At 5, 15, 30, 60, 120 and 225 minutes, a 5 mL aliquot was removed, filtered through a 0.22 μm filter, and analyzed on a UV/VIS spectrophotometer at 232 nm. Absorbance values of the samples were compared to those of standard solutions prepared in dissolution media to determine the amount of material dissolved.
At 5, 15, 30, 60, 120 and 225 minutes, a 5 mL aliquot was removed, filtered through a 0.22 μm filter, and analyzed on a UV/VIS spectrophotometer at 232 nm. Absorbance values of the samples were compared to those of standard solutions prepared in dissolution media to determine the amount of material dissolved.

[3] = test system: human renal cell adenocarcinoma (786-O cell line); assay: Drug efficacy in rat xenograft model, tumor volume; type: in vivo; settings: IV, QW × 3, 2.5-5 mg/kg
[4] = test system: human renal cell adenocarcinoma (786-O cell line); assay: H&E and immunohistochemical evaluation of xenograft tumors; type: in vivo, Rat (Rattus norvegicus); settings: for morphologic and immunohistochemical appearance of tumor: IV, 3 weekly cycles, versus vehicle/control
Excerpt: Tissue Collection: Primary Tumor (Inoculation site)—A final tumor measurement was taken prior to excision. Tumors were weighed after excision. Approximately ½ of each tumor (based on visual assessment) was flash frozen in 2-methylbutane on dry ice, the tumor piece was weighed when possible before it is flash frozen. The remaining was fixed in 10% neutral buffered formalin. Tumors were also collected from animals not reaching enrollment volume. Secondary Tumors—Any organ with visible tumors were collected and fixed in 10% neutral buffered formalin. Formalin fixed tissues were stored at room temperature. Frozen tissues were stored at −80° C. All tissue was stored for up to 3 months. Pictures of all tumors; primary and secondary if present, were taken.
Microscopic Examination: Tissues fixed with 10% NBF were embedded in paraffin. Each tumor was cut into 2-3 pieces and embedded and sectioned together.

[5] = Body weight and clinical observations in xenograft study; settings: IV, group 6, initial dosage 5 mg/kg
Method: Individual Body Weights: Three times weekly (M, W, F) starting at the time of inoculation.
Macroscopic Examination: A necropsy was conducted on all animals dying spontaneously, euthanized in extremis or at the scheduled necropsy after 50 days post initiation of treatment. Animals euthanized in extremis or at study termination were euthanized by CO2 inhalation. Necropsy included examination of the external surface, all orifices and the thoracic, abdominal and pelvic cavities, including viscera. At the time of necropsy, a final body weight and body condition score was collected.

[6] = BET specific surface area analysis; type: physicochemical
Method: As used herein, the “specific surface area” (SSA) is the total surface area of the taxane particle per unit of taxane mass as measured by the Brunauer-Emmett-Teller (“BET”) isotherm by the following method: a known mass between 200 and 300 mg of the analyte is added to a 30 mL sample tube. […] The automated test is then carried out using the BETWIN® software package and the surface area of each sample is subsequently calculated. As will be understood by those of skill in the art, the “taxane particles” can include both agglomerated taxane particles and non-agglomerated taxane particles; since the SSA is determined on a per gram basis it takes into account both the larger agglomerated and smaller non-agglomerated taxane particles in the composition. The agglomerated taxane particles are defined herein as individual taxane particles that are formed by the agglomeration of smaller particles which fuse together forming the larger individual taxane particles, all of which occurs during the processing of the taxane particles. […]
A known mass between 200 and 300 mg of the analyte was added to a 30 mL sample tube. […] The automated test was then carried out using the BETWIN® software package and the surface area of each sample was subsequently calculated.

[7] = Bulk density (not tapped); type: physicochemical; settings: room temperature
Method: As used herein, the “specific surface area” (SSA) is the total surface area of the taxane particle per unit of taxane mass as measured by the Brunauer-Emmett-Teller (“BET”) isotherm by the following method: a known mass between 200 and 300 mg of the analyte is added to a 30 mL sample tube. […] The automated test is then carried out using the BETWIN® software package and the surface area of each sample is subsequently calculated. As will be understood by those of skill in the art, the “taxane particles” can include both agglomerated taxane particles and non-agglomerated taxane particles; since the SSA is determined on a per gram basis it takes into account both the larger agglomerated and smaller non-agglomerated taxane particles in the composition. The agglomerated taxane particles are defined herein as individual taxane particles that are formed by the agglomeration of smaller particles which fuse together forming the larger individual taxane particles, all of which occurs during the processing of the taxane particles. The BET specific surface area test procedure is a compendial method included in both the United States Pharmaceopeia and the European Pharmaceopeia. […]
The mass of the drug was measured to a nearest 0.1 mg, the volume was determined to the nearest 0.1 mL and the density calculated.

[8] = Paclitaxel dissolution study, USP Apparatus II; type: physicochemical
Method: Beads were transferred to a stainless steel mesh container and placed in the dissolution bath containing methanol/water 50/50 (v/v) media at 37° C., pH 7, and a USP Apparatus II (Paddle), operating at 75 rpm. […] Absorbance values of the samples were compared to those of standard solutions prepared in dissolution media to determine the amount of material dissolved. […] Absorbance values of the samples were compared to those of standard solutions prepared in dissolution media to determine the amount of material dissolved.
Beads were transferred to a stainless steel mesh container and placed in the dissolution bath containing methanol/water 50/50 (v/v) media at 37° C., pH 7, and a USP Apparatus II (Paddle), operating at 75 rpm. […] Absorbance values of the samples were compared to those of standard solutions prepared in dissolution media to determine the amount of material dissolved.

Structure (SMILES)	Number Mean [1] [um]	Volume Mean [1] [um]	Docetaxel Dissolution time course ([2]; 0 minutes) [%]	Docetaxel Dissolution time course ([2]; 5 minutes) [%]	Docetaxel Dissolution time course ([2]; 15 minutes) [%]	Dissolution (30 min) ([2]; methanol/water 15/85 (v/v), 37° C., pH 7, 75 rpm, 30 min) [%]	tumor growth [3]	animals with Mild lymphohistiocytic infiltrate density ([4]; H/E and CD11b, IV docetaxel 3 cycles, 2 animals)	animals with <5% of tissue showing necrosis ([4]; IV docetaxel 3 cycles, 2 animals)	animals with viable carcinoma >10 mm ([4]; IV docetaxel 3 cycles, 2 female rats)	morphologic and immunohistochemical appearance of tumor [4]	morphologic and immunohistochemical appearance of tumor ([4]; listed as Docetaxel)	toxicity [5]	Surface area (BET, SSA) [6] [m^2/g]	Surface area (BET, SSA) ([6]; listed as raw paclitaxel) [m^2/g]	Bulk Density (not tapped) [7] [g/mL]	Paclitaxel Dissolution time course ([8]; 0 minutes) [%]	Dissolution (30 min) ([8]; methanol/water 50/50 (v/v), 37° C., pH 7, 75 rpm, 30 min) [%]
CC(=O)O[C@@]12CO[C@@H]1C[C@H](O)[C@@]1(C)C(=O)[C@H](O)C3=C(C)[C@@H](OC(=O)[C@H](O)[C@@H](NC(=O)OC(C)(C)C)c4ccccc4)C[C@@](O)([C@@H](OC(=O)c4ccccc4)[C@H]21)C3(C)C [docetaxel]	1.58	5.05	0.0	3.2	6.9	11	partial tumor growth inhibition compared to vehicle control	2	2	2	identical morphologic and immunohistochemical appearance to that seen in the control and IT vehicle groups	no difference	observed toxicity on day 7					
CC(=O)O[C@H]1C(=O)[C@@]2(C)[C@H]([C@H](OC(=O)c3ccccc3)[C@]3(O)C[C@H](OC(=O)[C@H](O)[C@@H](NC(=O)c4ccccc4)c4ccccc4)C(C)=C1C3(C)C)[C@]1(OC(C)=O)CO[C@@H]1C[C@@H]2O [Paclitaxel Raw Material, paclitaxel]														10.4	7.25	0.26	0.0	18
